Like-named read-outs stand apart in the source and are kept apart here.
Legend:
[1] = format: physicochemical; conditions: stored at room temperature (21-25° C.)
Description: At each time period, 0.05 g of powder was dissolved in 10 ml-15 of ethanol, diluted to fall within the analytical range, and injected into the LCMSMS for analysis.

[2] = Stability of cannabinoid and Vitamin E components of Beverage 2 (AB Red) stored at 8° C. and 21-25° C., LCMSMS over 570 days; conditions: 8° C.
Description: The LCMSMS was calibrated for 0-50 ng/ml cannabinoids with the same resin material used in the preparation of the concentrates. At each time period, 100 μml of beverage was diluted with 10 ml of methanol and injected into the LCMSMS for analysis.

SMILES: CCCCCc1cc(O)c2c(c1)OC(C)(C)c1ccc(C)cc1-2 [CBN, cannabinol]
- Stability in Powder Concentrate (content by LCMSMS) ([1]; day 0): 0.480 mg/g powder
- Stability in Powder Concentrate (content by LCMSMS) ([1]; day 1): 0.471 mg/g powder
- Stability in Powder Concentrate (content by LCMSMS) ([1]; day 2): 0.488 mg/g powder
- Stability in Powder Concentrate (content by LCMSMS) ([1]; day 3): 0.474 mg/g powder
- Stability in Powder Concentrate (content by LCMSMS) ([1]; day 5): 0.491 mg/g powder
- Stability in Powder Concentrate (content by LCMSMS) ([1]; day 8): 0.469 mg/g powder
- Stability in Powder Concentrate (content by LCMSMS) ([1]; day 9): 0.466 mg/g powder
- Stability in Powder Concentrate (content by LCMSMS) ([1]; day 10): 0.499 mg/g powder
- Stability in Powder Concentrate (content by LCMSMS) ([1]; day 11): 0.494 mg/g powder
- Stability in Powder Concentrate (content by LCMSMS) ([1]; day 12): 0.496 mg/g powder
- Stability in Powder Concentrate (content by LCMSMS) ([1]; day 15): 0.472 mg/g powder
- Stability in Powder Concentrate (content by LCMSMS) ([1]; day 16): 0.483 mg/g powder
- Stability in Powder Concentrate (content by LCMSMS) ([1]; day 17): 0.465 mg/g powder
- Stability in Powder Concentrate (content by LCMSMS) ([1]; day 18): 0.470 mg/g powder
- Stability in Powder Concentrate (content by LCMSMS) ([1]; day 19): 0.490 mg/g powder
- Stability in Powder Concentrate (content by LCMSMS) ([1]; day 22): 0.486 mg/g powder
- Stability in Powder Concentrate (content by LCMSMS) ([1]; day 23): 0.469 mg/g powder
- Stability in Powder Concentrate (content by LCMSMS) ([1]; day 24): 0.465 mg/g powder
- Stability in Powder Concentrate (content by LCMSMS) ([1]; day 25): 0.486 mg/g powder
- Stability in Powder Concentrate (content by LCMSMS) ([1]; day 26): 0.486 mg/g powder
- Stability in Powder Concentrate (content by LCMSMS) ([1]; day 29): 0.484 mg/g powder
- Stability in Powder Concentrate (content by LCMSMS) ([1]; day 30): 0.476 mg/g powder
- Stability in Powder Concentrate (content by LCMSMS) ([1]; day 60): 0.489 mg/g powder
- Stability in Powder Concentrate (content by LCMSMS) ([1]; day 90): 0.483 mg/g powder
- Stability in Powder Concentrate (content by LCMSMS) ([1]; day 120): 0.498 mg/g powder
- Stability in Powder Concentrate (content by LCMSMS) ([1]; day 150): 0.500 mg/g powder
- Stability in Powder Concentrate (content by LCMSMS) ([1]; day 180): 0.464 mg/g powder
- Stability in Powder Concentrate (content by LCMSMS) ([1]; day 210): 0.501 mg/g powder
- Stability in Powder Concentrate (content by LCMSMS) ([1]; day 240): 0.467 mg/g powder
- Stability in Powder Concentrate (content by LCMSMS) ([1]; day 270): 0.464 mg/g powder
- Stability in Powder Concentrate (content by LCMSMS) ([1]; day 300): 0.469 mg/g powder
- Stability in Powder Concentrate (content by LCMSMS) ([1]; day 330): 0.502 mg/g powder
- Stability in Powder Concentrate (content by LCMSMS) ([1]; day 360): 0.499 mg/g powder
- Stability in Powder Concentrate (content by LCMSMS) ([1]; day 390): 0.479 mg/g powder
- Stability in Powder Concentrate (content by LCMSMS) ([1]; day 420): 0.481 mg/g powder
- Stability in Powder Concentrate (content by LCMSMS) ([1]; day 450): 0.480 mg/g powder
- Stability in Powder Concentrate (content by LCMSMS) ([1]; day 480): 0.485 mg/g powder
- Stability in Powder Concentrate (content by LCMSMS) ([1]; day 510): 0.499 mg/g powder
- Stability in Powder Concentrate (content by LCMSMS) ([1]; day 540): 0.492 mg/g powder
- Stability in Powder Concentrate (content by LCMSMS) ([1]; day 570): 0.471 mg/g powder
- Stability of Cannabinoids in AB Red ([2]; 0 days): 2.81 µg/mL
- Stability of Cannabinoids in AB Red ([2]; 1 days): 2.82 µg/mL
- Stability of Cannabinoids in AB Red ([2]; 2 days): 2.74 µg/mL
- Stability of Cannabinoids in AB Red ([2]; 3 days): 2.83 µg/mL
- Stability of Cannabinoids in AB Red ([2]; 5 days): 2.78 µg/mL
- Stability of Cannabinoids in AB Red ([2]; 8 days): 2.80 µg/mL
- Stability of Cannabinoids in AB Red ([2]; 9 days): 2.74 µg/mL
- Stability of Cannabinoids in AB Red ([2]; 10 days): 2.79 µg/mL
- Stability of Cannabinoids in AB Red ([2]; 11 days): 2.73 µg/mL
- Stability of Cannabinoids in AB Red ([2]; 12 days): 2.76 µg/mL
- Stability of Cannabinoids in AB Red ([2]; 15 days): 2.77 µg/mL
- Stability of Cannabinoids in AB Red ([2]; 16 days): 2.83 µg/mL
- Stability of Cannabinoids in AB Red ([2]; 17 days): 2.80 µg/mL
- Stability of Cannabinoids in AB Red ([2]; 18 days): 2.78 µg/mL
- Stability of Cannabinoids in AB Red ([2]; 19 days): 2.78 µg/mL
- Stability of Cannabinoids in AB Red ([2]; 22 days): 2.73 µg/mL
- Stability of Cannabinoids in AB Red ([2]; 23 days): 2.79 µg/mL
- Stability of Cannabinoids in AB Red ([2]; 24 days): 2.76 µg/mL
- Stability of Cannabinoids in AB Red ([2]; 25 days): 2.83 µg/mL

Reference: patent US20240415914A1, “Water Dispersible Cannabinoid Compositions” (priority 2021, published 2024)
